In this assay the target is T1, MD-2 (myeloid differentiation protein 2, rhMD-2) (Homo sapiens, UniProt Q9Y6Y9).
T1 construct: gene LY96; recombinant human MD-2 (rhMD-2, R&D Systems)
T1 sequence (Q9Y6Y9 19-160): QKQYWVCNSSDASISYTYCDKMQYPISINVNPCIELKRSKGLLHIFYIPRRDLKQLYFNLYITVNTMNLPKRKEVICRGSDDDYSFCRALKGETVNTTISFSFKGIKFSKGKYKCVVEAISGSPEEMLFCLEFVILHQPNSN
In words: SPR (ProteOn XPR36); supported by bis-ANS displacement and biotin-LPS competition ELISA; R90A and Y102A abolish binding. In general terms: ELISA stands for enzyme-linked immunosorbent assay.

In the case of `COc1cccc(/C=C/C(=O)c2ccc(O)c(O)c2)c1OC` [L2H21, (E)‐2,3‐Dimethoxy‐3′,4′‐dihydroxychalcone], the Kd is 19.1 µM.

The term Kd denotes a measure of binding affinity in units of concentration. Low readings indicate a tighter complex, high ones a looser complex.
